The test system of one assay is CA1 pyramidal neurons. The assay can be described thus: Hippocampal slice recordings. The assay is classed as cell-based, mouse. The following applies: 10 μM, 1-s current injections (150 pA). Here is the method:
Brain slice preparation was approved by the University of California, Irvine, Institutional Animal Care and Use Committee. Male C57BL/6 J mice (postnatal day 23) were anesthetized with halothane, decapitated, and brains transferred to an ice-cold, sucrose artificial cerebral spinal fluid (ACSF; Sigma-Aldrich). Hippocampal slices (300 μm) were prepared using a Leica VT1200S vibrating blade microtome (Leica Microsystems Inc., Buffalo Grove, Ill.). Slices were incubated at 33° C. in oxygenated (95% O2, 5% CO2) standard ACSF containing the following (mM) for at least 1 h before recordings: 126 NaCl, 2.5 KCl, 1.25 NaHPO4, 1.2 MgSO4, 10 glucose, 1.2 CaCl2, and 26 NaHCO3. Slices were submerged and continuously perfused at 2 ml/min with oxygenated ACSF at 33° C. during the current-clamp experiments. Voltage-clamp experiments were performed in the same ACSF but with 1 mM tetraethylammonium chloride (Sigma-Aldrich) and 0.5 μM tetrodotoxin (Sigma-Aldrich) added. Pyramidal CA1 neurons were visualized and identified with an upright microscope (Zeiss Axioskop Plus; Zeiss Jena, Germany) with infrared differential interference contrast optics. Recording pipettes (2-5 MΩ) were filled with intracellular solution containing (in mM): 126 K-gluconate; 4 KCl; 10 HEPES; 2 Mg-adenosine triphosphate; 0.3 Tris-guanosine triphosphate; 10 phosphocreatine, pH 7.20, 270-290 mOsm. In the current-clamp mode, depolarizing current pulses were applied from a membrane potential of −65 mV to evoke tonic firing activity. In the voltage-clamp mode, neurons were held at −55 mV and KCa currents elicited by 50-ms voltage steps to 10 mV, applied every 10 s. SKA-19 or NS309 were perfused for 10 min into the bath to allow for equilibrium. Recordings were performed in the whole-cell mode using a MultiClamp 700B amplifier (Molecular Devices), […] and sampled at 20 kHz with a Digidata 1322A digitizer (Molecular Devices). Data were acquired and analyzed with pClamp 10.2 software (Molecular Devices).

Assay [1] concerns MES-induced seizures. The assay can be described thus: Maximal electroshock (MES) seizure test, mice (ASP, methylcellulose suspension). The assay is classed as in vivo. The settings on record: Mus musculus, ip; mice, i.p., methylcellulose suspension, time of peak effect (SKA-19: 2 h); read-out: ED50, seizure protection in the MES test. Here is the method:
(§1) SKA-19 was tested under the auspices of the National Institutes of Health's Anticonvulsant Screening Program (ASP). Experiments were performed in male albino CF (Carworth Farms) No. 1 mice or Sprague-Dawley rats according to the established protocols of the ASP (White et al., 2002). SKA-19 was suspended in 0.5% methylcellulose and administered in a volume that permits accuracy of dosage without excessively contributing to total body fluid (0.01 ml/g body weight for mice and 0.04 ml/10 g body weight for rats).
(§2) Animals received an electrical stimulus of 0.2 s duration (50 mA in mice and 150 mA in rat at 60 Hz) delivered via corneal electrodes primed with an electrolyte solution containing 0.5% tetracaine. Animals were restrained by hand and released immediately after stimulation to permit observation of the seizure throughout its entire course. In the initial screens to identify anticonvulsant activity mice were tested at 30 minutes and 4 hours following doses of 3, 10, 30, 100 and 300 mg/kg of SKA-19 and rats tested at time intervals between 0.25 and 4 hours following a standard oral dose of 30 mg/kg. In the subsequent, more quantitative tests at least four doses of SKA-19 (n=8 per dose) were tested at the previously determined time of peak effect (TPE). Abolition of hindlimb tonic extension indicates the test compound's ability to inhibit MES-induced seizure spread. Tonic extension is considered abolished if the hind limbs are not fully extended at 180° with the body.
A general note: Protection in the maximal electroshock model is a classic sign of anticonvulsant action.

Assay [2] deals with pentylenetetrazole-induced seizures. Briefly: Subcutaneous Metrazol seizure test (scMET). The following applies: mouse, in vivo. The assay is classed as in vivo. The protocol:
A dose of subcutaneous pentylenetetrazole (Metrazole, MET) which induces convulsions in 97% of animals (CD97: 85 mg/kg mice or 56.4 mg/kg rats) was injected into a loose fold of skin at the neck. Animals were placed in isolation cages and observed for 30 min for the occurrence of clonic spasms persisting for at least 5 s.

The subject of assay [3] is MES-induced seizures. The assay can be described thus: MES seizure test, CF-1 mice, compounds given i.p. as solution. It is filed as in vivo. The protocol: MES assays were performed at the Department of Neurology at the University of California with CF-1 mice. This study was approved by the University of California, Davis, Animal Use and Care Committee and conducted in accordance with the guidelines of Animal Use and Care of the National Institutes of Health and the University of California. For these assays, stock solutions of SKA-19 (5 mg/ml) were prepared in 5% CremophorEL (Sigma-Aldrich, St. Louis, Mo., USA) and 95% saline, diluted further with saline, and SKA-19 was administered i.p. in a volume of 10 ml/kg body weight. Animals were subjected to a 0.2-s, 60-Hz electrical stimulus through corneal electrodes (5 mm diameter stainless steel balls). The electroshock unit was adjusted to deliver a constant current of 50 mA. Immediately before stimulation, the corneal electrodes were wetted with saline to provide good electrical contact. Animals failing to show tonic hindlimb extension were scored as protected (Kokate et al., 1994).
The mouse maximal electroshock (MES) and 6 Hz seizure models were used. Motor toxicity was assessed using a modification of the horizontal screen test. ED50 values in the seizure models and TD50 values in the toxicity test were determined by nonlinear fitting of dose-response curves. […] Drugs solutions were injected intraperitoneally 10 min prior to administration of the electrical stimulus in a volume of 10 ml/kg body weight.

Assay [4] concerns MES-induced seizures. Briefly: Maximal electroshock (MES) seizure test, rats (ASP, methylcellulose suspension). It is filed as in vivo. The protocol:
as §1, §2

In assay [5] the test system is 6-Hz psychomotor seizures. The assay can be described thus: 6-Hz psychomotor seizure test (ASP). The assay is classed as in vivo, mice. The settings on record: Mus musculus, po, orally administered. Here is the method:
Seizures characterized by a minimal clonic phase followed by stereotyped automatistic behaviors (jaw chomping and whisker movement) were induced in mice by a low frequency (6 Hz), long-duration (3 s) stimulus. These seizures resemble automatistic behavior in patients with complex partial seizures. At varying times (0.25, 0.5, 1, 2, and 4 h) after drug treatment, individual mice (four at each time point) were challenged with sufficient current (32 or 44 mA at 6 Hz for 3 s) delivered through corneal electrodes to elicit a psychomotor seizure. Animals not displaying this behavior are considered protected.

Turning to NS309 [reference compound], the “termination of firing during the ongoing current train” value in the assay on CA1 pyramidal neurons is on record as “did not terminate firing”. Besides, the “effect on AP firing frequency” value in the assay with CA1 pyramidal neurons (holding potential -65 mV) was “reduced AP firing frequency”.
The term ED50 denotes the midpoint of the dose-response relation. Take `Nc1nc2ccc(OC(F)(F)F)cc2s1` [riluzole, 2-amino-6-(trifluoromethoxy)benzothiazole, reference compound]: the ED50 in the assay with MES-induced seizures [1] was 4.07 mg/kg; with MES-induced seizures [3] (Mus musculus, ip, 10 min, i.p. as solution, 10 min time point, read-out: ED50, seizure protection in the MES test) it was 5.37 mg/kg; in the assay on MES-induced seizures [4] (Rattus norvegicus, oral (SKA-19: 4 h time point), read-out: ED50, seizure protection in the MES test), 2.64 mg/kg; in assay [5] (32 mA, 0.5-h time point) it was 10.1 mg/kg; in assay [5] (44 mA, 1-h time point), 11.5 mg/kg. The “activity in the scMET test” value in assay [2] is “no significant activity”. The duration of protection with MES-induced seizures [3] (10 mg/kg i.p. as solution) is reported as ≤ 45 min. In addition, the “duration of protective activity” value in the assay with MES-induced seizures [3] (MES test, 10 mg/kg i.p. as solution) is < 1 h. Further, in the assay on MES-induced seizures [3] (i.p. as solution), the “onset of protection from seizures after application” value is reported as ≤ 5 min. The “protection from MES induced seizures, initial screen” value in the assay on MES-induced seizures [4] (30 mg/kg i.p.) was “completely protected”.

Values taken from patent publication US9675591B2, “Methods for treating seizure disorders and pain” (THE REGENTS OF THE UNIVERSITY OF CALIFORNIA, priority 2013, dated 2017).
